The source made the active and inactive calls.
Key:
[1] = target: Nuclear receptor subfamily 5 group A member 2 (Homo sapiens, UniProt O00482); format: functional, cell-based;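 note: HEK293T cells transfected with LRH-1 and a StAR promoter luciferase reporter; potency for inhibitors that lower LRH-1 driven reporter light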
Steroidogenic factor 1 = Steroidogenic factor 1 (Homo sapiens, UniProt Q13285); test: Counterscreen for inverse agonists of the liver receptor homolog-1 (LRH-1; NR5A2): Luminescence-based cell-based high throughput dose response assay to identify inverse agonists of the Steroidogenic Factor 1 Nuclear Receptor (SF1; NR5A1).; format: functional
Steroidogenic factor 1, sequence (Q13285 whole entry): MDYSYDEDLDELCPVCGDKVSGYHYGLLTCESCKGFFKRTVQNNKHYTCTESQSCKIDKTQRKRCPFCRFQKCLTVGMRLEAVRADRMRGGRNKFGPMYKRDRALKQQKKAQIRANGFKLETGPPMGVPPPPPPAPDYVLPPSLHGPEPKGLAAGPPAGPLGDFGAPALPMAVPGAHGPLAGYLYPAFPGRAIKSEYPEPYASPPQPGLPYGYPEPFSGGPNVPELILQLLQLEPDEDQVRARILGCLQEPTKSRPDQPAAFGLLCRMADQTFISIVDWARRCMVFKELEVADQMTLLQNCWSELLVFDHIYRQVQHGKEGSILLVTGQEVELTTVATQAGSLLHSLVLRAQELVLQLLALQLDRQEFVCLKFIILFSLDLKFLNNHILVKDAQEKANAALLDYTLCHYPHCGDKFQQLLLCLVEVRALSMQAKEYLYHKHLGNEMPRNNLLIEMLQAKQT

[2] = StAR promoter reporter inhibition counter-screen, dose response, counter-screen for LRH-1 inverse agonist project, cell-based, luminescence, luciferase reporter (AID 651969); format: functional
INS1 = test: beta cell apoptosis inhibitors, cytokine rescue, dose response, luminescence, retest (AID 449756); format: functional, cell-based; conditions: Rattus norvegicus;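 note: cell death triggered by IL-1 beta plus TNF-alpha plus IFN-gamma mixture; protective hits raise ATP signal compared with cytokine alone wells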
[3] = Shn3 3'UTR reporter inhibitors, dose response, cell-based, Clone20 osteoblasts, firefly luciferase, cherry-picked (AID 624132); format: functional;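 note: firefly luciferase luminescence from reporter carrying the Shn3 3'UTR in osteoblasts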
[4] = HepG2 cell cytotoxicity, dose response, cytotoxicity control for Shn3 inhibitor project, CellTiter-Glo, cherry-picked (AID 624134); format: functional, cell-based
[5] = control 3'UTR Renilla luciferase suppression, dose response, counter-screen for Shn3 inhibitor project, cell-based, Clone20-Shn3RL, cherry-picked (AID 624133); format: functional
Protein Wnt-3a = Protein Wnt-3a (Mus musculus, UniProt P27467); test: Wnt3a-driven reporter signaling inhibition, dose response, selectivity assay for Gli-SUFU antagonist project, Wnt-LIGHT cells, luminescence (AID 651570); format: functional; conditions: read-out: IC50_Mean;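 note: Wnt-LIGHT reporter cells stimulated with conditioned medium from Wnt3a-producing cells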
Protein Wnt-3a, sequence (P27467 whole entry): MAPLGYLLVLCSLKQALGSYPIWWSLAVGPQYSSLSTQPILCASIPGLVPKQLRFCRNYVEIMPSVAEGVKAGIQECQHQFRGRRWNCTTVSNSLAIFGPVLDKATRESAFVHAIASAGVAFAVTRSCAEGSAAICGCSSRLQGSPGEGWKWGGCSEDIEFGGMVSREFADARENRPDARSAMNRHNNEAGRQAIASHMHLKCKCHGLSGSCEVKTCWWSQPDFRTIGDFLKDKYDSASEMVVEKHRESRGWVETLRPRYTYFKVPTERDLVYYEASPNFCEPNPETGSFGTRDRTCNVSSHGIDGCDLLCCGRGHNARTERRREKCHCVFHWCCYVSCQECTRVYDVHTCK

Caspase-3 = target: T1, Caspase-3 (Homo sapiens, UniProt P42574); format: functional;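 note: Dose-response selectivity test against caspase-3 for candidate inhibitors of sentrin-specific proteases (SENPs)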
T1 sequence (P42574 whole entry): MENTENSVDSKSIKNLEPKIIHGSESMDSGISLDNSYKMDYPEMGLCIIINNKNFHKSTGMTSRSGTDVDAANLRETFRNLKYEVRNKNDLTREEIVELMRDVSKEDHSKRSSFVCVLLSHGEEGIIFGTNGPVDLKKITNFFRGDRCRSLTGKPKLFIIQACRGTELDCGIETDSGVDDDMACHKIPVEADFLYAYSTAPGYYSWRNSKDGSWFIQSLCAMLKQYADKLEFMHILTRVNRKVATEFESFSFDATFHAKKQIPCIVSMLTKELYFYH

[6] = target: T2, Sentrin-specific protease 7 (Homo sapiens, UniProt Q9BQF6); format: functional;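 note: Luminescence-based dose-response confirmation of ultra-high-throughput screening hits, measuring inhibition of SENP7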
T2 sequence (Q9BQF6 whole entry): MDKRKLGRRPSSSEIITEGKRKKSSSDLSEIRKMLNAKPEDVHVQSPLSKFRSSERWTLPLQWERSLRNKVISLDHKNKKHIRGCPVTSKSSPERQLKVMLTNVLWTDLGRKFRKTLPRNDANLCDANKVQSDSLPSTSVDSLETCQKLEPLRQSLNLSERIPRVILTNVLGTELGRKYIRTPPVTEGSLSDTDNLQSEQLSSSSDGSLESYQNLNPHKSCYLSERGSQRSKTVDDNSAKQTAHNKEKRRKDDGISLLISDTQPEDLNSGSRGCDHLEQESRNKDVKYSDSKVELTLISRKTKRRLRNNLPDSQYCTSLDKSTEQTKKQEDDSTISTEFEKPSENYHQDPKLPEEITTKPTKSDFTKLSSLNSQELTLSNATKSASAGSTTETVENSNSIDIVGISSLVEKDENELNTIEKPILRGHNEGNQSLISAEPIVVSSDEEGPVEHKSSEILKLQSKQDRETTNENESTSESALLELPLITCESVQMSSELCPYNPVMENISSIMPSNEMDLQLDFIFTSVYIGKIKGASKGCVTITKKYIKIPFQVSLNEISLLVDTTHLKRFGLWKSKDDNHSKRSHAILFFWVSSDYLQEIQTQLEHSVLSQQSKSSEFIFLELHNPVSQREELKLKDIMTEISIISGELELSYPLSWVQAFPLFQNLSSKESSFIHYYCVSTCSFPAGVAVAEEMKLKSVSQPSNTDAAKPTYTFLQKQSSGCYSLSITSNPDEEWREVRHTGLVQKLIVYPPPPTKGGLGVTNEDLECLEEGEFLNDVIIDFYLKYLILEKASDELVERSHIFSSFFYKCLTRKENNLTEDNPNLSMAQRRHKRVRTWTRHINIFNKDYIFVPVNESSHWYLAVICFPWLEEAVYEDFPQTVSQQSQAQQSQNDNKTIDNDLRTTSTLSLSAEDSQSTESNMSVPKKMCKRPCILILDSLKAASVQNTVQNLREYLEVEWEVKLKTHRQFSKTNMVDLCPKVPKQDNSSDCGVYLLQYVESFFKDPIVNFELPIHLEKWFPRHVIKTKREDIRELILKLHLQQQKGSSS

[7] = target: T3, Sentrin-specific protease 6 (Homo sapiens, UniProt Q9GZR1); format: functional;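 note: Luminescence-based dose-response confirmatory assay of SENP6 inhibition, following up an ultra-high-throughput screen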
T3 sequence (Q9GZR1 whole entry): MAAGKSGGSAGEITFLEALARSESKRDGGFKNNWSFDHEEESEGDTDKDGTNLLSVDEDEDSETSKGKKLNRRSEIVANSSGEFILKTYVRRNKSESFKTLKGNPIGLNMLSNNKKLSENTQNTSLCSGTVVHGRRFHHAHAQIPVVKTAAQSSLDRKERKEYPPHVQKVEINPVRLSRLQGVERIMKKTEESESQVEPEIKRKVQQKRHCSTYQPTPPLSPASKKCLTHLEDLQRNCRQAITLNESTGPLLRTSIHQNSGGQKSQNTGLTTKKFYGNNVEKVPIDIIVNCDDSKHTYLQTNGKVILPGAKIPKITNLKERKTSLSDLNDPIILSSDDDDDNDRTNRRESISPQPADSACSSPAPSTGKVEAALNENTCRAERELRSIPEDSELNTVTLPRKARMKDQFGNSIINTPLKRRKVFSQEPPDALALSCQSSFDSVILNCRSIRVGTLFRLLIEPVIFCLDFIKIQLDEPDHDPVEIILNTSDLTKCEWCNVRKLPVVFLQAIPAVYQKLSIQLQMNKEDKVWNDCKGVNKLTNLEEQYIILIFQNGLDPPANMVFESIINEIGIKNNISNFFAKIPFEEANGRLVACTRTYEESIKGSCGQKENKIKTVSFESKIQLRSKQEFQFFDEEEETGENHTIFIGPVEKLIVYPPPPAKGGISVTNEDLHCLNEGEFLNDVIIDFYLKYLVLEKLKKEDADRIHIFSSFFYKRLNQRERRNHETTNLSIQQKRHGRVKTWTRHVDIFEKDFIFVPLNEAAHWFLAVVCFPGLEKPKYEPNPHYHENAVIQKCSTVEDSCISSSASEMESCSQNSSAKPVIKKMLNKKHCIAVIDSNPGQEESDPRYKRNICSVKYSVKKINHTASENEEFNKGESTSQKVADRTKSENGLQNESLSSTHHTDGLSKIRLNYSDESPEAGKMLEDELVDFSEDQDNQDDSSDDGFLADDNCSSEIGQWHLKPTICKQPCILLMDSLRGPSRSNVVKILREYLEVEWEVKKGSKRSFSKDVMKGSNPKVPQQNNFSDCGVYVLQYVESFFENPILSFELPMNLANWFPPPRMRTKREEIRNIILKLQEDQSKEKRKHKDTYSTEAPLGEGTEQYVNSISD

[8] = target: T4, Sentrin-specific protease 8 (Homo sapiens, UniProt Q96LD8); format: functional;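 note: luminescence read-out of SENP8 inhibition, dose-response confirmation following an ultra-high-throughput screen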
T4 sequence (Q96LD8 whole entry): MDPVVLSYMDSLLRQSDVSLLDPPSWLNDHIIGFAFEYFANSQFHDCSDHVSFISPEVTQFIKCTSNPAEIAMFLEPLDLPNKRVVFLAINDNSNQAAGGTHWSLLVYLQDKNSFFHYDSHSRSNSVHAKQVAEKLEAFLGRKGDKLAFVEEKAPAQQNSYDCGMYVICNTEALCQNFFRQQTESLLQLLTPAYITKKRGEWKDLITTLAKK

[9] = target: Adenosylmethionine-8-amino-7-oxononanoate aminotransferase (Mycobacterium tuberculosis, UniProt P9WQ81); test: Mycobacterium tuberculosis BioA enzyme inhibitor Measured in Biochemical System Using Plate Reader - 2163-02_Inhibitor_Dose_CherryPick_Activity.; format: functional, Mycobacterium tuberculosis UT205
Adenosylmethionine-8-amino-7-oxononanoate aminotransferase, sequence (P9WQ81 whole entry): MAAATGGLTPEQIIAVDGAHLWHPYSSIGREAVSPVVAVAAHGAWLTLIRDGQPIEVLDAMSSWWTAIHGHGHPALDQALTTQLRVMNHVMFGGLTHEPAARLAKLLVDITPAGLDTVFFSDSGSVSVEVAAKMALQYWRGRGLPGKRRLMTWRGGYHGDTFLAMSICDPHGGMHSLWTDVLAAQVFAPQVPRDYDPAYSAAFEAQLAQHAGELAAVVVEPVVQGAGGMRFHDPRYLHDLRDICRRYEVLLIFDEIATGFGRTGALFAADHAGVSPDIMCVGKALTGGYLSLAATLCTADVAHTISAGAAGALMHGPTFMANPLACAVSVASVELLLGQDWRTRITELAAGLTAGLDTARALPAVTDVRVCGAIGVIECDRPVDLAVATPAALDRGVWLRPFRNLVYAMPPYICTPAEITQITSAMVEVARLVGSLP

[10] = target: Tyrosine-protein phosphatase non-receptor type 11 (Homo sapiens, UniProt Q06124); test: SHP2 phosphatase inhibition, dose response, selectivity assay for STEP inhibitor project, biochemical (AID 602367); format: functional; conditions: read-out: IC50_Mean
Tyrosine-protein phosphatase non-receptor type 11, sequence (Q06124 whole entry): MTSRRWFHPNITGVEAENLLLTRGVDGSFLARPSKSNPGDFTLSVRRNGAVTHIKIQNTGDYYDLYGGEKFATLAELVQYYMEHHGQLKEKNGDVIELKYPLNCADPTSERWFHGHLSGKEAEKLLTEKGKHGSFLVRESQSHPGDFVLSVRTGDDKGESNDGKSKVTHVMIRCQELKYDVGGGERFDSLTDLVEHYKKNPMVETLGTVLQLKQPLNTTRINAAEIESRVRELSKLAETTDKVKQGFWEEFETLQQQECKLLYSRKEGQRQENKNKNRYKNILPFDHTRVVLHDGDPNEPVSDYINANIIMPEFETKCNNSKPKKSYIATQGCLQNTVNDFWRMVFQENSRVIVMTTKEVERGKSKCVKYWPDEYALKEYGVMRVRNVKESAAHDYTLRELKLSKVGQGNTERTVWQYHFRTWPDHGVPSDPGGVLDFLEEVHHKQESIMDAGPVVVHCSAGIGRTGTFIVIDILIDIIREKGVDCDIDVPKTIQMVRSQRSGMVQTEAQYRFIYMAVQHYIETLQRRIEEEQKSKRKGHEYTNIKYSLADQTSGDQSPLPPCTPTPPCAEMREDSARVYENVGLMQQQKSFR

[11] = target: Tyrosine-protein phosphatase non-receptor type 5 (Homo sapiens, UniProt P54829); test: STEP phosphatase inhibitors, confirmation, biochemical, fluorescence intensity, uHTS hits (AID 602372); format: functional; conditions: read-out: IC50_Mean
Tyrosine-protein phosphatase non-receptor type 5, sequence (P54829 whole entry): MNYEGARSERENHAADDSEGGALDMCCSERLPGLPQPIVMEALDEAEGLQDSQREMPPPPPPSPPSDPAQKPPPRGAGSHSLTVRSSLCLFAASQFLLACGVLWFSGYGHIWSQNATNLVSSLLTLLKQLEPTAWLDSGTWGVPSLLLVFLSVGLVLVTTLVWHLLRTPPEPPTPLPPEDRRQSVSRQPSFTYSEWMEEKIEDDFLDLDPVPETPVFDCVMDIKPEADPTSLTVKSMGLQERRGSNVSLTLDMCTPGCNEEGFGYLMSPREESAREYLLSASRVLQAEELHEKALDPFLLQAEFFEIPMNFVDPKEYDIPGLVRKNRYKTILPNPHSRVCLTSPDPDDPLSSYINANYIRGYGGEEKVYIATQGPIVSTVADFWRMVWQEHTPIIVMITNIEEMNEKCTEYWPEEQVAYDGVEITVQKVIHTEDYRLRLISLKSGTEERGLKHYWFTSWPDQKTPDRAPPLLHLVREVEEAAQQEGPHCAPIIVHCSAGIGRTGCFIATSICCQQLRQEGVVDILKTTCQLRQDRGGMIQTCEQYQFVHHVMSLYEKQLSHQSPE

[12] = target: Dual specificity protein phosphatase 3 (Homo sapiens, UniProt P51452); test: VHR phosphatase inhibition, dose response, selectivity assay for STEP inhibitor project, biochemical (AID 602374); format: functional; conditions: read-out: IC50_Mean
Dual specificity protein phosphatase 3, sequence (P51452 whole entry): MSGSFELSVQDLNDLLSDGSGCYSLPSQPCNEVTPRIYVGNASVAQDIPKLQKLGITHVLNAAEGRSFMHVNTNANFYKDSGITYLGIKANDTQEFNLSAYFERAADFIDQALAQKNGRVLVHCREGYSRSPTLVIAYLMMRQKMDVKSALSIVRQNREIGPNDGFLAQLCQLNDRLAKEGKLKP

[13] = target: T5, Polyadenylate-binding protein 1 (Homo sapiens, UniProt P11940); test: PABP1 MLLE–PAM2 interaction inhibitors, dose response, miRNA deadenylation inhibitor project, biochemical, fluorescence polarization, Cy5-PAM2 peptide, secondary (AID 602260); format: functional; conditions: read-out: IC50_Mean
T5 sequence (P11940 whole entry): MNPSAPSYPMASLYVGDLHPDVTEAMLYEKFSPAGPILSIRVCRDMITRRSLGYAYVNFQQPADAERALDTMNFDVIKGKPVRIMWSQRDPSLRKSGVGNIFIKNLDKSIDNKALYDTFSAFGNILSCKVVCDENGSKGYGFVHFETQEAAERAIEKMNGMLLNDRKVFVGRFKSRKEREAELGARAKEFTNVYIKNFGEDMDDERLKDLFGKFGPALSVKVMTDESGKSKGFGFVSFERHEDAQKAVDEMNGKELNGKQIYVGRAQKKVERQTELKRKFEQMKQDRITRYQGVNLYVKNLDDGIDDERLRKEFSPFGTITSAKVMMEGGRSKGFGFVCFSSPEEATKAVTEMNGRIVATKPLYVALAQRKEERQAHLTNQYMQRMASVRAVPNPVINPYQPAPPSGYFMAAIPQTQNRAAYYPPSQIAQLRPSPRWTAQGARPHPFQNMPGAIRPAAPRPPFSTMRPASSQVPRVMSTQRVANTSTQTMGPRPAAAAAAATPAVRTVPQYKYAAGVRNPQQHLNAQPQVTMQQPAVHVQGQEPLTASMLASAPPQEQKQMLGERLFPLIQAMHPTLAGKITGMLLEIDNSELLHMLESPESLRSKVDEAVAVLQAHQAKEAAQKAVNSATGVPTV

[14] = target: T5, Polyadenylate-binding protein 1; test: PABP1 MLLE–PAM2 binding inhibitor potency, dose response, biochemical, fluorescence polarization, FITC-PAM2 peptide (AID 602259); format: functional; conditions: read-out: IC50_Mean
[15] = tested on: Streptococcus sp. 'group A'; test: growth inhibition of control SK(-) GAS strain, dose response, counter-screen for streptokinase expression inhibitor project, luminescence, kanamycin, BacTiterGlo, confirmation (AID 1900); format: functional, organism-based
Streptokinase A = target: T6, Streptokinase A (Streptococcus pyogenes serotype M1, UniProt P10520); test: S. pyogenes streptokinase expression inhibitors, potency, dose response, plasminogen activation absorbance, OD405 (AID 1914); format: functional, Streptococcus pyogenes M1 GAS;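 note: secreted streptokinase activity via plasminogen activation per viability signal from cell pellet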
T6 sequence (P10520 whole entry): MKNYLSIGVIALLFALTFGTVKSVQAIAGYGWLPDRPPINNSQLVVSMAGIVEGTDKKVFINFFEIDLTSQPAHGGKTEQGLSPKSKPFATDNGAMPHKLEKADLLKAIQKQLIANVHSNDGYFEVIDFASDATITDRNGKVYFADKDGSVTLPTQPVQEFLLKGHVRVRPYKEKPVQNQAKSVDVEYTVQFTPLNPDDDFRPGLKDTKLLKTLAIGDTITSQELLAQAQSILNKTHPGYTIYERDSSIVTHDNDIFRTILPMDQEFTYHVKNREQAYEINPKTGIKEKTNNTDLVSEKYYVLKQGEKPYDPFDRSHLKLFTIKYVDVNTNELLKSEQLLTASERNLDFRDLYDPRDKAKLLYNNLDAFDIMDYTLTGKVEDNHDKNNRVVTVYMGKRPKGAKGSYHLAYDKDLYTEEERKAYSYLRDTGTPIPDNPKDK

Streptococcus = test: Group A Streptococcus viability loss, dose response, counter-screen for streptokinase expression inhibitor project, luminescence, BacTiterGlo (AID 1915); format: functional, organism-based;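 note: potency for reduction of bacterial viability or growth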
Protein skinhead-1 = target: T7, Protein skinhead-1 (Caenorhabditis elegans, UniProt P34707); format: functional
T7 sequence (P34707 whole entry): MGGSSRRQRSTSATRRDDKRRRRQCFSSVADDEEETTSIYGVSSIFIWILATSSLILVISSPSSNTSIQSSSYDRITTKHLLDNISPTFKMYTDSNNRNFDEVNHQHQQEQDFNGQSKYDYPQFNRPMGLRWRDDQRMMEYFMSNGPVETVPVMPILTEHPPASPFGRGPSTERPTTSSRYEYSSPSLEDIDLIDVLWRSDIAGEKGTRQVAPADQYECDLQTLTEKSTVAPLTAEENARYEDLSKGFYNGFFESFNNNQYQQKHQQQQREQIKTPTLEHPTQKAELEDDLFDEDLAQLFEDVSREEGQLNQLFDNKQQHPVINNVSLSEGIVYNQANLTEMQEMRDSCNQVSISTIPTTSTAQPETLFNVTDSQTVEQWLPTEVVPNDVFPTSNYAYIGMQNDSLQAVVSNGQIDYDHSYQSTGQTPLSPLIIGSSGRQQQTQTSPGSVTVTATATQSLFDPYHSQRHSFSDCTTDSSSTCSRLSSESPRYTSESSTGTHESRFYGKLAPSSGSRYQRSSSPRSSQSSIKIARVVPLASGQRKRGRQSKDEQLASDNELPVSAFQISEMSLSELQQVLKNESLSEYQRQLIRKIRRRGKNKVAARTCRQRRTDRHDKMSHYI

[16] = Fluorescence-based cell-based high throughput dose response assay for inhibitors of the interaction of nucleotide-binding oligomerization domain containing 2 (NOD2) and the receptor-interacting serine-threonine kinase 2 (RIPK2).; format: functional; conditions: Homo sapiens

Nuclear receptor subfamily 5 group A member 2, sequence (O00482 whole entry): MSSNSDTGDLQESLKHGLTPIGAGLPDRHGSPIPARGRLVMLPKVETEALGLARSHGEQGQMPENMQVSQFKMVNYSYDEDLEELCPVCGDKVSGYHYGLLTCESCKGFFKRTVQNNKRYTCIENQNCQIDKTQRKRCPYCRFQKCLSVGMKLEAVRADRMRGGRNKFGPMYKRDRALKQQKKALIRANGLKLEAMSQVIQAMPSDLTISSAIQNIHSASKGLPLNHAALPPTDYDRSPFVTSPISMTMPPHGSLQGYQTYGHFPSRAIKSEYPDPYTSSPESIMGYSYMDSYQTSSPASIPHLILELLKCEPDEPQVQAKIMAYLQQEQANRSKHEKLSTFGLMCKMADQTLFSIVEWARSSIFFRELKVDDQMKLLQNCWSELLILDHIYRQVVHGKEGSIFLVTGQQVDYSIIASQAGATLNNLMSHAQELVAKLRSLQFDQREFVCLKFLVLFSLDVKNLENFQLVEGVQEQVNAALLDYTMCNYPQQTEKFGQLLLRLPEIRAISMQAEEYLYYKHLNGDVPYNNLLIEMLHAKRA

CCCNC(=O)c1sc2c(c1C(=O)Nc1ccccn1)CCCC2
IC50 [1]: 14.5 µM (inactive)
IC50 (Steroidogenic factor 1): 8.39 µM (active)
IC50 [2]: 35.9 µM (inactive)

O=C(c1cc2sccc2n1Cc1ccc(F)cc1)N1CCN(c2nc3ccccc3s2)CC1
AC50 (INS1): 3.42 µM (active)
AC50 [3]: 1.36 µM (active)
AC50 [4]: 3.48 µM (active)
AC50 [5]: 1.71 µM (active)
IC50 (Protein Wnt-3a): 5.49 µM (active)

O=C(O)c1cccc(NC(=O)c2ccc(COc3ccc(Cl)cc3)cc2)c1
IC50 (Caspase-3): > 100 µM (inactive)
IC50 [6]: 21.8 µM (active)
IC50 [7]: 16.7 µM (active)
IC50 [8]: 41 µM (active)

CCOC(=O)C1(CCc2ccccc2)CCN(C(=O)CN2CCOC2=O)CC1
AC50 [9]: 3.89 µM (active)

S=C(NCCCN1CCOCC1)Nc1ccc(-c2nc3ccccc3[nH]2)cc1
IC50 [10]: 3.45 µM (active)
IC50 [11]: 56.7 µM (inactive)
IC50 [12]: 3.03 µM (active)

CCOC(S)=NC(=NS(C)(=O)=O)c1ccccc1
IC50 [13]: > 66 µM (inactive)
IC50 [14]: > 66 µM (inactive)

Cc1n[nH]c(Nc2ccc(C(C)C)cc2)c1[N+](=O)[O-]
EC50 [15]: 30.9 µM (active)
EC50 (Streptokinase A): 22.3 µM (active)
EC50 (Streptococcus): > 150 µM (not active)
IC50 (Caspase-3): 36 µM (active)
IC50 [6]: 9.42 µM (active)
IC50 [7]: 10.1 µM (active)
IC50 [8]: > 100 µM (inactive)

CCOc1ccc(NS(=O)(=O)c2cccc(C(=O)N3CCN(C/C=C/c4ccccc4)CC3)c2)cc1
IC50 (Protein Wnt-3a): 22.7 µM (inactive)

O=c1c2ccccc2oc2ccc(-c3ccc4[nH]ccc4c3)cc12
IC50 (Caspase-3): 75.1 µM (active)
IC50 [6]: 6.1 µM (active)
IC50 [7]: 33.7 µM (active)
IC50 [8]: > 100 µM (inactive)
IC50 (Protein skinhead-1): 4.77 µM (active)

C=CCNC(=S)N/N=C(\C)c1cccc(OC)c1
IC50 [13]: > 66 µM (inactive)
IC50 [14]: > 66 µM (inactive)

CCOC(=O)[C@]12Cc3c(cc(OC)c(OC)c3OC)[C@H]1N(C1CCCCC1)C(=O)c1cc(OC)ccc12
IC50 [16]: 2.36 µM (active)

CNC(=O)C[C@H]1CC[C@@H]2[C@H](COC[C@@H](O)CN2C(=O)Nc2ccc(Cl)c(Cl)c2)O1
AC50 [9]: 1.88 µM (active)

Reference: ChEMBL document CHEMBL1201862, “PubChem BioAssay data set” (2004)
